Results reported in patent EP4085972A1, “AMP-ACTIVATED PROTEIN KINASE INHIBITORS FOR USE IN THE TREATMENT OF PTSD IN A SUBJECT” (Consejo Superior de Investigaciones Científicas (CSIC), priority 2021, dated 2022).

Key:
orexin neurons [1] = assay: Patch-clamp recordings in acute hypothalamic slices (DREADD check); type: cell-based; settings: hypothalamic slices of Orexin-Cre mice transduced with pAAV-hSyn-DIO-hM4D(Gi)-mCherry; CNO 2µM in perfusate
Protocol: Viral constructs. For chemogenetic experiments using DREADD, a viral construct (pAAV-hSyn-DIO-hM4D(Gi)-mCherry (AAV5; Addgene # 44362); 8.6 x 1012 viral infective units/ml) was locally injected bilaterally to inactivate orexin-cre neurons in Orexin-Cre (littermates) and transgenic mice (Firoc). As control virus, pAAV-hSyn-DIO-mCherry (AAV5; Addgene # 50459) was used. Both viral constructions were obtained from Addgene. Clozapine N-Oxide (CNO, 2mg/kg dissolved in saline 0.9%) was administered ip and 40 min later behavior was assessed, CNO efficacy in orexin neurons was confirmed in acute slices obtained from injected mice. Slices for electrophysiological recordings were prepared from 2-months old Orexin-Cre mice, 4 weeks after injection of the DREADD-mCherry virus into the lateral hypothalamus. […] Recordings were obtained at 30-32 °C from orexin+ neurons identified using fluorescence microscopy (mCherry+) in oxygenated artificial cerebrospinal fluid containing the following: 126 mM NaCl, 26 mM NaHCO3, 2.5 mM KCI, 1.25 mM NaH2PO4, 2 mM MgSO4, 2 mM CaCl2 and 10 mM glucose (pH 7.4). […] Data were analyzed using pClamp (Axon Instruments).

orexin neurons [2] = assay: c-fos immunostaining in orexin neurons after fear conditioning; type: in vivo; settings: Firoc DREADD mice treated with CNO at week 1
Protocol: Immunocytochemistry. Mice were perfused transcardially under deep anesthesia (sodium pentobarbital, 50 mg/kg, i.p.) with 100 ml of saline buffer 0.9% followed by 100 ml of 4% paraformaldehyde (PFA) in 0.1N, pH 7.4 phosphate buffer (PB), 90 min after the cued-fear conditioning test, the recall context, or under basal conditions. This time point was selected as optimal to see c-Fos staining. For experiments with systemic administration of IGF-I, animals were sacrificed 2 hours after injection. Brains were removed, post-fixed overnight at 4°C in the same fixative, and cut at 50 µm thick sections on a vibratome (Leica VT 1000S). Sections were kept at 4°C, immersed in 0.1N PB with 0.02% sodium azide, until processing. Serial coronal free-floating sections were rinsed in 0.1N PB for 10 min, and a blocking solution containing 10% normal donkey serum, and 0.4% Triton X-100 in 0.1N PB (PB-T) was added and maintained at room temperature for 2 h. Thereafter, sections were incubated overnight at 4°C in the same solution with the corresponding primary antibodies (see Antibody Table). […] Images were taken with confocal microscopy (SP5, Leica Microsystems, Germany) and analyzed with Imaris software (Bitplane).
Image analysis. […] Last, spots were created for Vgat and Vglut2 with an estimated XY size of 0.5 µm, and the number of Vgat and Vglut2 spots in orexin+ cells was counted.

fear-conditioned mice = assay: Cued-fear conditioning (freezing behavior, context recall); type: in vivo
Protocol: Cued-fear conditioning. Experiments were performed at the same time of the day during the light phase with 3-4 months-old male and female mice (n=14-19 mice/genotype, balanced sex). The training and test sessions were video recorded. Mice were placed in a shuttle box chamber (AccuScan Instruments) for 120 sec before exposing them to a neutral conditioned stimulus (CS+) -a tone of 80 dB for 30s, presented together with an aversive unconditioned stimulus (US) -an electrical footshock of 0.3 mA/2 sec, except in the case of the PTSD-eliciting protocol, where 2.5 mA shocks were used. Training consisted of 5 consecutive trials with 90 sec intertrials (CS-). Animals remained in the chamber for 5 min more before returning them to their home cages. Twenty-four hours later, fear conditioning was tested placing the animals in a different context using the same protocol but without the unconditioned stimulus (US). […] Freezing behavior was defined by the absence of movement except of breathing and heart beating. Context-dependent extinction was tested 1 and 5 weeks later (delayed extinction). Mice were placed in the same context for 5 min to measure their freezing behavior. The latter unveils PTSD-like behaviour when it is abnormally retained.
Drug administration. Human recombinant IGF-I (Pre-Protech, USA) or vehicle (saline) were administered intracerebroventricularly (icv, 50 µg/kg/day) using Alzet osmotic minipumps for 7 days (Model 1007D), and the brain infusion kit 3 (Alzet, USA) with the following stereotaxic coordinates: AP= -0.5; ML= 1.1; DV= -2.5. Alzet pumps were implanted subcutaneously between the scapulae. In other experiments IGF-I was given intraperitoneally (ip, 1 µg/kg) to wild type mice submitted to the 2.5 mA fear-learning protocol 6 hours after fear conditioning. For hdM4Di (DREADD) experiments, clozapine-N-oxide (CNO, Tocris) was administered at 2mg/kg dissolved in saline 0.9%, and injected intraperitoneally 40 min before test sessions, and 24h and 1week after fear conditioning. 6-[4-(2-Piperidin-1-yl-ethoxy)-phenyl)]-3-pyridin-4-yl-pyrrazolo [1,5-a]-pyrimidine dihydrochloride (Compound C dihydrochloride, AMPK inhibitor; Cat. # CD0339, Chemdea NJ, USA) was administered intraperitoneally (ip, 10 mg/kg) 6 hours after fear conditioning to PTSD-like wild type mice.

| Compound | inhibition of orexin neurons (action potential frequency, input resistance) (orexin neurons [1]) | c-fos expression in orexin neurons 5 weeks after fear conditioning (orexin neurons [2]) | freezing behavior in the fifth week after fear learning (fear-conditioned mice; Firoc DREADD mice treated with CNO 1 week after fear learning) | context-dependent fear responses (context recall) 1 week later (fear-conditioned mice; Firoc mice injected with hM4Di virus, after CNO administration) | fear responses after fear conditioning (fear-conditioned mice; Firoc mice with hM4Di DREADD virus in lateral hypothalamus, CNO 2mg/kg ip 40 min before testing) | increased freezing after 2.5 mA shock protocol (fear-conditioned mice; orexin-Cre mice injected with hM4Di virus, CNO administration) | fear behavior after the PTSD protocol (fear-conditioned mice; wild type mice, 2.5 mA shocks, Compound C ip, 10 mg/kg, 6 hours after fear conditioning) |
| --- | --- | --- | --- | --- | --- | --- | --- |
| C[N+]1([O-])CCN(C2=Nc3cc(Cl)ccc3Nc3ccccc32)CC1 [CNO, clozapine-N-oxide] | inhibition of orexin neurons was confirmed | normal | normal freezing behavior | normalized fear responses | normalized their fear responses | ameliorated |  |
| c1cc(-c2cnn3cc(-c4ccc(OCCN5CCCCC5)cc4)cnc23)ccn1 [Compound C] |  |  |  |  |  |  | normalized fear behavior |
